Among the test systems are Hs-578T; MDA-MB-231; UO-31; K562; BT-549; OVCAR-3; HL-60; HCT-15; OVCAR-8; OVCAR-4; A498; KM12; ACHN; DU-145; NCI-H23; MCF7; IGROV-1; HOP-62; MDA-MB-435; SK-MEL-2.
What all share (test): NCI tumour cell line growth inhibition, 48 h

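Grown in 96-well plates, cells were treated for 48 hours with each compound at five concentrations. Insufficient inhibition: endpoint recorded as highest concentration tested. GI50: concentration for 50% inhibition of growth.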 The source made the active and inactive calls. Cut-off read from the data, not from the text of the source: active = GI50 up to about 1.1 µM and inactive = higher.

For the molecule `CC(=O)NC1=CC(=O)C=C(Cl)C1=O`, the GI50 in the assay with Hs-578T was > 100 µM (inactive); in the assay on MDA-MB-231, > 100 µM (inactive); in the assay on UO-31 it was > 100 µM (inactive); in the assay with K562, 33.7 µM (inactive); with BT-549 it was > 100 µM (inactive); with OVCAR-3, > 100 µM (inactive). In addition, the GI50 was 20.9 µM (inactive) in the assay with HL-60; over 100 µM in the assay on HCT-15; > 100 µM (inactive) with OVCAR-8; 18.1 µM (inactive) in the assay on OVCAR-4; > 100 µM (inactive) with A498; > 100 µM (inactive) with KM12. The GI50 is > 100 µM (inactive) in the assay with ACHN; > 100 µM (inactive) in the assay with DU-145; 43.9 µM (inactive) in the assay on NCI-H23; 28.7 µM (inactive) with MCF7; > 100 µM (inactive) in the assay with IGROV-1; > 100 µM (inactive) in the assay on HOP-62. In addition, the GI50 with MDA-MB-435 was 17.9 µM (inactive); with SK-MEL-2, 59.8 µM (inactive).

Consider `O=C(O)CO[C@@]12C#C/C=C\C#C[C@@H]3N(C(=O)Oc4ccccc4)c4ccccc4[C@]14O[C@@]34CCC2`, for which the GI50 with Hs-578T is 19.4 µM (inactive); with MDA-MB-231, 12.9 µM (inactive); with UO-31 it was 24.1 µM (inactive); in the assay on K562, 23.7 µM (inactive); in the assay on BT-549, 30.1 µM (inactive); with OVCAR-3, 47.1 µM (inactive). The GI50 is 26.5 µM (inactive) in the assay on HL-60; 8.55 µM in the assay with HCT-15; 44.6 µM (inactive) in the assay with OVCAR-8; 56.1 µM (inactive) in the assay on OVCAR-4; 59.3 µM (inactive) in the assay with A498; 17.6 µM (inactive) in the assay on KM12. Also, the GI50 in the assay with ACHN was 85.9 µM (inactive); in the assay on DU-145 it was 43.3 µM (inactive); in the assay with NCI-H23, 53.5 µM (inactive); in the assay on MCF7, 14.6 µM (inactive); in the assay on IGROV-1, 27.2 µM (inactive); with HOP-62 it was 83.8 µM (inactive). In addition, the GI50 in the assay on MDA-MB-435 was 1.53 µM (inactive); in the assay with SK-MEL-2, 16.2 µM (inactive).

In the case of `c1ccc2c(c1)-c1ccccc1C2N1CC2CCC(CC2)C1`, the GI50 is 3.37 µM (inactive) with Hs-578T; 18.8 µM (inactive) in the assay with MDA-MB-231; 28.8 µM (inactive) in the assay on UO-31; 17.3 µM (inactive) in the assay on K562; 16.8 µM (inactive) in the assay with BT-549; 20.4 µM (inactive) with OVCAR-3. For the same molecule, the GI50 with HL-60 is 2.92 µM (inactive); in the assay on HCT-15, 16.8 µM; in the assay with OVCAR-8, 30 µM (inactive); in the assay with OVCAR-4 it was 31.9 µM (inactive); in the assay with A498, 20.3 µM (inactive); in the assay with KM12, 19 µM (inactive). The GI50 is 23 µM (inactive) in the assay on ACHN; 29.9 µM (inactive) with DU-145; 17.3 µM (inactive) in the assay on NCI-H23; 17.5 µM (inactive) in the assay with MCF7; 20.7 µM (inactive) with IGROV-1; 25.2 µM (inactive) in the assay with HOP-62. Also, the GI50 with MDA-MB-435 is 25.1 µM (inactive); in the assay with SK-MEL-2, 16 µM (inactive).

For `CC(C)(C)OC(=O)N(CCCCNCc1ccc2ccccc2c1)CCCNCc1ccc2ccccc2c1`, the GI50 with Hs-578T is 1.77 µM (inactive); with MDA-MB-231, 1.02 µM (active); in the assay with UO-31 it was 1.73 µM (inactive); with K562, 0.273 µM (active); in the assay with BT-549 it was 1.73 µM (inactive); in the assay with OVCAR-3, 1.93 µM (inactive). The GI50 with HL-60 is 0.204 µM (active); in the assay on HCT-15, 1.57 µM; with OVCAR-8 it was 1.67 µM (inactive); with OVCAR-4 it was 1.67 µM (inactive); in the assay with A498, 1.91 µM (inactive); in the assay with KM12, 1.3 µM (inactive). For the same molecule, the GI50 is 1.92 µM (inactive) in the assay with ACHN; 1.69 µM (inactive) in the assay on DU-145; 1.85 µM (inactive) with NCI-H23; 1.55 µM (inactive) with MCF7; 1.64 µM (inactive) in the assay on IGROV-1; 1.86 µM (inactive) with HOP-62. Besides, the GI50 in the assay on MDA-MB-435 is 1.84 µM (inactive); with SK-MEL-2, 2.06 µM (inactive).

Consider `COc1cc2c(cc1OC)C(Cc1ccccc1CCCl)=NCC2`, for which the GI50 in the assay on Hs-578T is 73.5 µM (inactive); in the assay with MDA-MB-231, > 100 µM (inactive); in the assay with UO-31 it was 31.3 µM (inactive); with K562, 30.3 µM (inactive); in the assay on BT-549 it was 40.3 µM (inactive); in the assay on OVCAR-3, > 100 µM (inactive). Besides, the GI50 was 19.8 µM (inactive) with HL-60; 25.1 µM with HCT-15; 47.2 µM (inactive) in the assay with OVCAR-8; 45.6 µM (inactive) in the assay on OVCAR-4; > 100 µM (inactive) in the assay on A498; 36.8 µM (inactive) in the assay with KM12. Besides, the GI50 in the assay with ACHN was 73.3 µM (inactive); with DU-145 it was > 100 µM (inactive); in the assay with NCI-H23, 22 µM (inactive); in the assay on MCF7, 49.4 µM (inactive); with IGROV-1, 27 µM (inactive); in the assay with HOP-62, > 100 µM (inactive). The results for the GI50 in the assay on MDA-MB-435 and in the assay on SK-MEL-2 were 40.1 µM (inactive) and > 100 µM (inactive), respectively.

Regarding `COc1ccc(/C=C(\C#N)c2nc(N)nc(N3N=C(C)CC3(C)C)n2)c(O)c1`, the GI50 with Hs-578T was 18.3 µM (inactive); in the assay on MDA-MB-231, 17.8 µM (inactive); in the assay with UO-31, 17.3 µM (inactive); in the assay with K562 it was 21.3 µM (inactive); in the assay with BT-549, 34 µM (inactive); with OVCAR-3 it was 15 µM (inactive). The GI50 in the assay on HL-60 is 16.5 µM (inactive); in the assay with HCT-15, 17.7 µM; in the assay on OVCAR-8 it was 32.7 µM (inactive); in the assay with OVCAR-4 it was 15.8 µM (inactive); in the assay with A498, 28.4 µM (inactive); with KM12, 15.6 µM (inactive). The GI50 with ACHN is 17.1 µM (inactive); in the assay on DU-145, 16.7 µM (inactive); in the assay on NCI-H23, 18.8 µM (inactive); in the assay with MCF7 it was 18.5 µM (inactive); in the assay with IGROV-1, 24 µM (inactive); in the assay with HOP-62, 24.1 µM (inactive). The results for the GI50 in the assay with MDA-MB-435 and in the assay on SK-MEL-2 were 16.9 µM (inactive) and 20.7 µM (inactive), respectively.

For the molecule `Cc1ccc(Cc2n[nH]c(=O)[nH]2)cc1`, the GI50 in the assay with Hs-578T, in the assay on MDA-MB-231, in the assay with UO-31, in the assay on K562, with BT-549 and in the assay on OVCAR-3 was > 100 µM (inactive) in each case. Moreover, the GI50 in the assay with HL-60 was > 100 µM (inactive); with HCT-15 it was over 100 µM; in the assay on OVCAR-8 it was > 100 µM (inactive); with OVCAR-4, > 100 µM (inactive); in the assay on A498, > 100 µM (inactive); in the assay on KM12, > 100 µM (inactive). The GI50 in the assay on ACHN was > 100 µM (inactive); in the assay on DU-145 it was > 100 µM (inactive); with NCI-H23 it was > 100 µM (inactive); in the assay with MCF7, 28.6 µM (inactive); in the assay with IGROV-1 it was > 100 µM (inactive); in the assay on HOP-62, > 100 µM (inactive). Also, the GI50 in the assay on MDA-MB-435 and with SK-MEL-2 was > 100 µM (inactive) each time.

The values above are taken from ChEMBL document CHEMBL1201862, “PubChem BioAssay data set” (2004).
